System: TBK1
Experiment: Immunoblot of TBK1 phosphorylation in HCT116 cells
Type: cell-based, human
Settings: HCT116 p53 wild-type and p53−/− cells; 1 μM single agents, combination 0.5 or 1 micromolar each
Excerpt: Antibodies recognizing phosphorylated/activated ATM (S1981, #ab81292) and DNA-PKcs (S2056, #ab18192) were purchased from Abcam Biotechnology (Cambridge, MA). Antibodies to ATM (#A1106) and DNA-PKcs (#ab1832) were from Sigma and Abcam, respectively. Phospho-KAP1 (S824, #A300-767A) and KAP1 (A700-014) antibodies were from Bethyl Labs (Montgomery, TX). Phospho-TBK1 (#5483), cGAS (#15102), and pSTING (S366, #19781S) antibodies were from Cell Signaling Technology (CST) (Danvers, MA). STING (PA5-23381) antibodies were from ThermoFisher Scientific (Waltham, MA), and actin (#A5316) antibodies were from Sigma. All antibodies were diluted 1:1000 with the exception of actin which was diluted 1:3000 in 1×TBST (1×TBS-10×TBS, (Corning, 46-012-CM), 0.05% Tween-20 (P7949) Sigma and 1% BSA. Secondary antibodies used were (a) Li-Cor method-Goat anti-Rabbit (926-3221) and Goat anti-Mouse (926-68020) Li-Cor (b) ECL method: Anti-rabbit IgG, HRP-linked (#7074S), CST.
Cells were pretreated with Compound 569 at 20, 100, 500, or 1000 nM or DMSO for 30 min and then irradiated with 0 or 10 Gy (XRAD 160, Precision X Ray) as shown in FIG. 1. In FIG. 3, cells were pretreated with Compound 569 at 1 μM, ATMi (AZD0156) at 1 μM, DNA-PKi (peposertib) at 1 μM as single agents or DMSO or with ATMi and DNA-PKi in combination at 0.5 micromolar each or at 1 micromolar each for 30 min and then irradiated with 0 or 10 Gy (XRAD 160, Precision X Ray) as shown in FIG. 1. One hour after IR, cells were lysed in RIPA buffer ([…], pH 8.0, 150 mM NaCl, 0.1% SDS, 0.5% sodium deoxycholate, 1% IGEPAL® CA-630 (Sigma, 18896) for 20 min at 4° C. in the presence of protease and phosphatase inhibitor cocktails (Roche, #04693159001 & #04906837001). Cell lysates were centrifuged at 13,200 g for 10 min at 4° C. and supernatants were analyzed for protein content using BCA assay (Pierce™ BCA Protein Assay Kit, cat #23227, ThermoFisher Waltham, MA 02451) and equal amounts of protein/lane were used for subsequent immunoblot analyses. Proteins were denatured by adding NuPAGE LSD Sample Buffer [4×] […]

Row | Structure (SMILES) | phosphorylation of TBK1
1 | CN(C)CCCOc1ccc(-c2ccc3ncc4c(c3c2)n(C2CCOCC2)c(=O)n4C)cn1 [AZD0156] | induction of phosphorylation of TBK1
2 | COc1ccc([C@@H](O)c2cc(-c3ncnc4cc(N5CCOCC5)ccc34)c(F)cc2Cl)nn1 [peposertib] | induction of phosphorylation of TBK1
